Experimental data from ChEMBL document CHEMBL3885861, “Open TG-GATES”.

Species on record: Rattus norvegicus
Test: Open TG-GATES - Regimen: Single
Assay type: toxicity, organism-based, Sprague-Dawley
Parameters: regimen Single, gender Male, age 6 weeks
Settings: in vivo, po, route gavage; for APTT / Bas / Eos / Fbg / Hb / Ht / Lym / MCHC / MCV / Mono / PT / Plat / RBC / Ret / WBC: tissue Blood; for KIDNEY_L / KIDNEY_R / KIDNEY_TOTAL: tissue Kidney; for LIVER: tissue Liver; for ALP / ALT / AST / BUN / CRE / Ca / Cl / DBIL / IP / LDH / Na / PL / RALB / TBIL / TC / TG / TP / gamma-GTP: tissue Plasma
[1] = 0 mg/kg, 3 h, dose level Control
[2] = 0 mg/kg, 6 h, dose level Control
[3] = 0 mg/kg, 9 h, dose level Control
[4] = 0 mg/kg, 24 h, dose level Control

## CC(C)N(CCC(C(N)=O)(c1ccccc1)c1ccccn1)C(C)C (centres undefined) [DISOPYRAMIDE]
[1]
  TERMINAL_BW: 207.1 g
  APTT: 21.7 s
  Bas: 0%
  Eos: 1%
  Fbg: 318.8 mg/dL
  Hb: 13.2 g/dL
  Ht: 41.1%
  Lym: 77.6%
  MCHC: 32.1%
  MCV: 64.4 fL
  Mono: 2.6%
  PT: 15.8 s
  Plat: 117.3 x10_4/uL
  RBC: 638.6 x10_4/ul
  Ret: 8%
  WBC: 84.7 x10_2/uL
  KIDNEY_L: 0.9 g
  KIDNEY_R: 0.9 g
  KIDNEY_TOTAL: 1.9 g
  LIVER: 9.6 g
  ALP: 1747.4 IU/L
  ALT: 51 IU/L
  AST: 79.8 IU/L
  BUN: 12.4 mg/dL
  CRE: 0.2 mg/dL
  Ca: 10.5 mg/dL
  Cl: 108.2 meq/L
  DBIL: 0 mg/dL
  IP: 8.5 mg/dL
  LDH: 193.8 IU/L
  Na: 141.8 meq/L
  PL: 122.6 mg/dL
  RALB: 2.9 g/dL
  TBIL: 0.006 mg/dL
  TC: 69 mg/dL
  TG: 45.4 mg/dL
  TP: 5.4 g/dL
  gamma-GTP: 1.4 IU/L
[2]
  TERMINAL_BW: 210.2 g
  APTT: 22.4 s
  Bas: 0%
  Eos: 0.4%
  Fbg: 310.2 mg/dL
  Ht: 39.9%
  Lym: 80.8%
  MCHC: 32%
  MCV: 64.8 fL
  Mono: 2.6%
  PT: 15.7 s
  Plat: 122.8 x10_4/uL
  RBC: 615.4 x10_4/ul
  Ret: 7.8%
  WBC: 110.6 x10_2/uL
  KIDNEY_L: 1 g
  KIDNEY_R: 1 g
  KIDNEY_TOTAL: 1.9 g
  LIVER: 9.3 g
  ALT: 42.4 IU/L
  AST: 73.2 IU/L
  BUN: 13 mg/dL
  CRE: 0.1 mg/dL
  Ca: 10.8 mg/dL
  Cl: 105.6 meq/L
  DBIL: 0 mg/dL
  IP: 9.3 mg/dL
  LDH: 164.8 IU/L
  Na: 140.6 meq/L
  PL: 135 mg/dL
  RALB: 2.9 g/dL
  TBIL: 0.004 mg/dL
  TC: 72.6 mg/dL
  TG: 91 mg/dL
  TP: 5.5 g/dL
  gamma-GTP: 1.2 IU/L
[3]
  TERMINAL_BW: 204.9 g
  APTT: 22.5 s
  Bas: 0%
  Eos: 0.4%
  Fbg: 300.8 mg/dL
  Hb: 12.9 g/dL
  Ht: 40%
  Lym: 80.6%
  MCHC: 32.3%
  MCV: 62.7 fL
  Mono: 2.6%
  PT: 15.9 s
  Plat: 113.2 x10_4/uL
  RBC: 638.2 x10_4/ul
  Ret: 7.5%
  WBC: 90.9 x10_2/uL
  KIDNEY_L: 1 g
  KIDNEY_R: 1 g
  KIDNEY_TOTAL: 2 g
  LIVER: 8.8 g
  ALP: 1336.4 IU/L
  ALT: 41.6 IU/L
  AST: 72.8 IU/L
  BUN: 13.4 mg/dL
  CRE: 0.1 mg/dL
  Ca: 10.5 mg/dL
  Cl: 106.6 meq/L
  DBIL: 0.002 mg/dL
  IP: 9.2 mg/dL
  LDH: 146.8 IU/L
  Na: 141.6 meq/L
  PL: 116.8 mg/dL
  RALB: 2.9 g/dL
  TBIL: 0.002 mg/dL
  TC: 62.4 mg/dL
  TG: 61.4 mg/dL
  TP: 5.4 g/dL
  gamma-GTP: 1.2 IU/L
[4]
  TERMINAL_BW: 222.5 g
  APTT: 21.9 s
  Bas: 0%
  Eos: 1%
  Fbg: 317 mg/dL
  Hb: 13.2 g/dL
  Ht: 40.9%
  Lym: 82.6%
  MCHC: 32.3%
  MCV: 65 fL
  Mono: 2.4%
  PT: 16 s
  Plat: 117 x10_4/uL
  RBC: 629.4 x10_4/ul
  Ret: 7.9%
  WBC: 80.5 x10_2/uL
  KIDNEY_L: 1 g
  KIDNEY_R: 1 g
  KIDNEY_TOTAL: 2 g
  LIVER: 10.6 g
  ALP: 1631 IU/L
  ALT: 53.6 IU/L
  AST: 78.6 IU/L
  BUN: 17 mg/dL
  CRE: 0.2 mg/dL
  Ca: 10.7 mg/dL
  Cl: 105 meq/L
  DBIL: 0 mg/dL
  IP: 7.8 mg/dL
  LDH: 192.4 IU/L
  PL: 143.2 mg/dL
  RALB: 3 g/dL
  TBIL: 0 mg/dL
  TC: 71.8 mg/dL
  TG: 104 mg/dL
  TP: 5.5 g/dL
  gamma-GTP: 2 IU/L
40 mg/kg, 3 h, dose level Low
  TERMINAL_BW: 208.4 g
  APTT: 23 s
  Bas: 0%
  Eos: 1%
  Fbg: 313.4 mg/dL
